Test [1] concerns the target T1, fructosyl amino acid oxidase from Pichia sp. N1-1 (N1-1 FAOD, SEQ ID NO: 2) variant N47A (Pichia sp. N1-1, UniProt Q3L8U0, N47A).
T1 construct: crude and purified
T1 sequence (Q3L8U0 1-427 N47A): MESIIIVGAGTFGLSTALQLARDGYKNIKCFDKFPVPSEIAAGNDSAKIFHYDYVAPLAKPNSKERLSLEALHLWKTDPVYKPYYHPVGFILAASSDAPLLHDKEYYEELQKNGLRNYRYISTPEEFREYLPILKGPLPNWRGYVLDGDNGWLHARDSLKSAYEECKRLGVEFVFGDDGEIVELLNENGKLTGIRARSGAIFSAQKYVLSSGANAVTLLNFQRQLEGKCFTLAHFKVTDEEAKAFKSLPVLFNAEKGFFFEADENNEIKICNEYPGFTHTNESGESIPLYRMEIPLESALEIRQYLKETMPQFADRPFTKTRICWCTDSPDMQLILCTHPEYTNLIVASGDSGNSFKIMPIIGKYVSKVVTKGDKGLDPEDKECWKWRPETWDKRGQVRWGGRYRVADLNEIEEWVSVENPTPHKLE
The experiment in a line: Dehydrogenase activity kinetics (mPMS/DCIP), N1-1 FAOD N47A mutant. It counts as biochemical. Particulars: mPMS/DCIP over 4AA/TODB/POD. An excerpt: (§1) As used herein, “dehydrogenase activity” is an enzymatic activity (Vmax) of the fructosyl amino acid oxidase to catalyze oxidation of fructosyl amino acid to generate 2-keto-D-glucose and the corresponding amino acid while utilizing an electron mediator other than oxygen as an electron acceptor. The dehydrogenase activity may be assayed by measuring the amount of electrons transferred to the mediator using, for example, one of mPMS/DCIP (1-methoxy-5-methylphenazinium methylsulfate/2,6-dichloroindophenol), cPES (trifluoro-acetate-1-(3-carboxy-propoxy)-5-ethyl-phenanzinium, NA BM31—1144 (N,N-bis-(hydroxyethyl)-3-methoxynitrosoaniline hydrochloride, NA BM31—1008 (N,N-bis-hydroxyethyl-4-nitrosoaniline) and N—N-4-dimethyl-nitrosoaniline.
(§2) As used herein in the context of the relative or quantitative activity, the dehydrogenase activity is specifically defined to be the mole amount of the substrate (fructosyl amino acid) oxidized per unit time measured by the amount of electrons transferred to the mediator at 25° C. in 10 mM PPB (pH 7.0), 0.6 mM DCIP, and 6 mM methoxy PMS (mPMS).
Escherichia coli BL21 (DE3) cells harboring expression vectors of N1-1 FAOD (SEQ ID NO: 2) mutants were grown in 150 ml of LB medium containing 50 μg/ml kanamycin at 37° C. […] The formation of quinoneimine dye was measured spectrophotometrically at 546 nm. […]

Test [2] addresses fructosyl amino acid oxidase from Phaeosphaeria nodorum (PnFPOX, SEQ ID NO: 1) variant N56A (Parastagonospora nodorum, UniProt Q0UIL6, N56A). The experiment in a line: Dehydrogenase activity kinetics (mPMS/DCIP), PnFPOX N56A mutant. It counts as biochemical. To be noted: purified enzyme, 25° C., pH 7.0.
Description: as §1, §2
Escherichia coli BL21 (DE3) cells harboring expression vectors of N1-1 FAOD (SEQ ID NO: 2) mutants were grown in 150 ml of LB medium containing 50 μg/ml kanamycin at 37° C. After reaching an A660 value of 0.6, 0.3 mM IPTG was added and incubated at 25° C. for an additional 5 hours. The cells were collected by centrifugation and washed twice with 0.85% NaCl.aq. Then, the cells were resuspended in 10 mM Potassium Phosphate Buffer (PPB) pH 7.0 and lysed by ultrasonic homogenizer. The lysate was centrifuged at 10,000×g, 4° C. for 10 min, and the supernatant was centrifuged at 50,000 rpm, 4° C. for 60 min, then the supernatant was dialyzed against 10 mM PPB (pH 7.0). The oxidase activity was assayed at 25° C. in 10 mM PPB, pH 7.0, 1.5 mM TODB, 2 U/ml horseradish peroxidase (POD), and 1.5 mM 4-aminoantipyrine (4AA) in the presence of substrates (0.2, 0.5, 0.75, 1, 2, 5 mM f-^αVal […]). The formation of quinoneimine dye was measured spectrophotometrically at 546 nm. The dehydrogenase activity was assayed at 25° C. in 10 mM PPB (pH 7.0), 0.6 mM DCIP, and 6 mM methoxy PMS (mPMS) in the presence of substrates (0.2, 0.5, 1, 2, 5 mM f-^αVal or 5 mM f-^αVal-His).
Mutations were introduced using site-directed mutagenesis as in Example 1, and BL21 (DE3) cells were transformed with an expression vector containing wild-type or mutant PnFPOX (SEQ ID NO: 1). The cultured cells were resuspended in 10 mM PPB, pH 7.0, and lysed by sonication. The lysate was centrifuged at 10,000 g at 4° C. for 20 min, and the supernatant was centrifuged at 50,000 rpm at 4° C. for 60 min. The oxidase and dehydrogenase activities were measured as in Example 1. […]

Chain of fructosyl amino acid oxidase from Phaeosphaeria nodorum (PnFPOX, SEQ ID NO: 1) variant N56A (Q0UIL6 whole entry N56A): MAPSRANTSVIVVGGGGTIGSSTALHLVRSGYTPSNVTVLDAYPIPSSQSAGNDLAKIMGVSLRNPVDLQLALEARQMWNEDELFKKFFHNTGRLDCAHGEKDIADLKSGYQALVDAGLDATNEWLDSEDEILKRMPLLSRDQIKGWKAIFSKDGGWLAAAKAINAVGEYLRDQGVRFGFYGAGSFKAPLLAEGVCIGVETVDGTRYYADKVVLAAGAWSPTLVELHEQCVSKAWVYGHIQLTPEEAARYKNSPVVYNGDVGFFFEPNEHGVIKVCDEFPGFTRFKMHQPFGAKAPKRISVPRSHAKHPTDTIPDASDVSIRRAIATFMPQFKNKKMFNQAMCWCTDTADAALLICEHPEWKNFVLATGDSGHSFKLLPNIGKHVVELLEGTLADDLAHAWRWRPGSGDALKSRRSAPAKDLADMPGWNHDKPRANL

On to `CC(C)[C@H](NCC1(O)OC[C@@H](O)[C@@H](O)[C@@H]1O)C(=O)O` (stereo partly drawn) [f-αVal, fructosyl valine], for which the “B/A (Vmax dehydrogenase/Vmax oxidase)” value in test [1] (crude preparation) turned out to be 7.5; in test [1] (purified enzyme), 4.3. Besides, the Vmax in test [2] came out at 95.1 U/mg.

Values taken from patent US8497083B2, “Fructosyl amino acid oxidase” (priority 2009, dated 2013).
